Reference: publication PMC9315884, “New Membrane Active Antibacterial and Antiviral Amphiphiles Derived from Heterocyclic Backbone of Pyridinium-4-Aldoxime” (Pharmaceuticals, 2022)
Several values for one entry are separate records, joined by “and”; a condition that tells them apart may be missing. Equal entries are not always repeated. Structures can show the parent of a compound that is named as a salt. Where two headings read alike, the source gives them in different places.

How the values were obtained:
[1] = system: Tobacco mosaic virus (TMV); assay: Antiphytoviral activity assay (local lesions on host plant leaves); type: in vivo, Tobacco mosaic virus on Datura stramonium; conditions: Datura stramonium leaves, compound 100 µg/mL inoculated simultaneously with TMV
Protocol: Leaves of Nicotiana tabacum L. cv. Samsun plants systemically infected with Tobacco mosaic virus (TMV) were ground in 0.06 mol/L phosphate buffer, pH 7.0 (1:1, w/v) to prepare virus inocula. […] Leaves of the local host Datura stramonium L. were dusted with silicon carbide (Sigma-Aldrich, St. Louis, MO, USA) before virus inoculation, and the inoculum was diluted with inoculation buffer to obtain 5–20 lesions per inoculated leaf. Experiments were performed when the experimental plants reached the 4–6 leaf stage.
The tested QAS (10 mg/mL) were dissolved in 4% DMSO and added to the virus inocula at a final concentration of 100 µg/mL. DMSO was added to the control virus inocula at the same concentration. The control and treated plants were then rubbed with the prepared inocula and the antiviral activity of the tested compounds was evaluated by the percentage inhibition of the number of local lesions on the leaves of the treated and control plants as described in [40]. The obtained data were analyzed in Excel (Microsoft Office) and significant differences were determined by t-test.

[2] = system: Salmonella enterica food isolate; assay: Broth microdilution assay (MIC); type: cell-based; conditions: S. enterica food isolate
Protocol: (§1) The antibacterial activity of all compounds was evaluated by determining the minimum inhibitory concentration (MIC), which is defined as the lowest concentration of the compound at which no visible bacterial growth is detected. The compounds were tested against representatives of Gram-positive and Gram-negative strains, including the ESKAPE bacterium Staphylococcus aureus ATCC25923 and the clinical isolate of methicillin-resistant S. aureus (MRSA), which are known for their pathogenicity.
(§2) The collection included five Gram-positive strains, including Staphylococcus aureus (ATCC 25923 and a methicillin-resistant Staphylococcus aureus clinical strain MRSA), Bacillus cereus ATCC 14579, Enterococcus faecalis ATCC 29212, and Listeria monocytogenes ATCC 7644; and three Gram-negative strains: Escherichia coli ATCC 25922, Pseudomonas aeruginosa ATCC 27853 and the food isolate Salmonella enterica. All microbial strains were maintained at ™80 °C for long-term storage and subcultured on Mueller-Hinton (MH) agar (Biolife, Italy) prior to broth microdilution experiments. The MH plates were stored at +4 °C for no longer than one month.
(§3) Antibacterial activity was evaluated using the Broth Microdilution Assay according to the Clinical and Laboratory Standard Institute’s Methods for Dilution Antimicrobial Susceptibility Test for Bacteria That Grow Aerobically; Approved Standard-Tenth Edition.
(§4) The stock solution of QAS (10 mg/mL) was prepared in 4% DMSO. Then, 100 µL of the tested QAS was added to the first well of the microtiter plate. Twofold serial dilutions in Muller-Hinton broth were performed over the entire plate at a concentration range of 5 mg/mL to 5 µg/mL. To each well, 50 µL of mid-exponentially grown inoculum containing 10^5 CFU/mL in Mueller-Hinton broth was added and incubated at 37 °C for 18 hours. The minimum inhibitory concentration (MIC) was determined as the lowest concentration at which no visually detectable bacterial growth occurred in the wells.

[3] = system: methicillin-resistant Staphylococcus aureus clinical strain MRSA; assay: Broth microdilution assay (MIC); type: cell-based
Protocol: as §1, §2, §3, §4

[4] = system: Listeria monocytogenes ATCC7644; assay: Broth microdilution assay (MIC); type: cell-based
Protocol: as §1
(§5) All microbial strains were maintained at ™80 °C for long-term storage and subcultured on Mueller-Hinton (MH) agar (Biolife, Italy) prior to broth microdilution experiments. The MH plates were stored at +4 °C for no longer than one month.
as §3
(§6) The stock solution of QAS (10 mg/mL) was prepared in 4% DMSO. Then, 100 µL of the tested QAS was added to the first well of the microtiter plate. Twofold serial dilutions in Muller-Hinton broth were performed over the entire plate at a concentration range of 5 mg/mL to 5 µg/mL. […] The minimum inhibitory concentration (MIC) was determined as the lowest concentration at which no visually detectable bacterial growth occurred in the wells.

[5] = system: Pseudomonas aeruginosa ATCC27853; assay: Broth microdilution assay (MIC); type: cell-based
Protocol: as §1, §5, §3, §6

[6] = system: Staphylococcus aureus ATCC25923; assay: Broth microdilution assay (MIC); type: cell-based; conditions: Staphylococcus aureus
Protocol: as §1, §5, §3, §6

[7] = system: Bacillus cereus ATCC14579; assay: Broth microdilution assay (MIC); type: cell-based
Protocol: as §1, §5, §3, §6

[8] = system: Escherichia coli ATCC25922; assay: Broth microdilution assay (MIC); type: cell-based
Protocol: as §1, §5, §3, §6

[9] = system: Enterococcus faecalis ATCC29212; assay: Broth microdilution assay (MIC); type: cell-based
Protocol: as §1, §5, §3, §6

[10] = 18 h, L. monocytogenes ATCC7644, read-out: MIC
[11] = 18 h, P. aeruginosa ATCC27853, read-out: MIC
[12] = S. aureus ATCC25923, 18 h, 37 °C, read-out: MIC
[13] = 18 h, B. cereus ATCC14579, read-out: MIC
[14] = ATCC25922, 18 h, E. coli ATCC25922, read-out: MIC
[15] = 18 h, E. faecalis ATCC29212, read-out: MIC
[16] = ATCC25922, 18 h, E. coli ATCC25922

SMILES | melting point [°C] | MIC ([2]; 18 h) | MIC ([3]; MRSA, 18 h) [µg/mL] | MIC [4, 10] | MIC [5, 11] | MIC [6, 12] [µg/mL] | MIC [7, 13] [µg/mL] | MIC [8, 14] | MIC [9, 15] | MIC ([4]; ATCC7644, 18 h) | MIC ([5]; ATCC27853, 18 h) | MIC ([6]; ATCC25923, 18 h) [µg/mL] | MIC ([7]; ATCC14579, 18 h) [µg/mL] | MIC ([9]; ATCC29212, 18 h) | other results
ON=Cc1cc[n+](Cc2ccc(C(F)(F)F)cc2)cc1 (as salt: bromide) [Py-BnCF3, N-(p-(trifluoromethyl))benzyl-4-hydroxyiminomethylpyridinium bromide] | 186 to 187 |  |  |  |  |  |  |  |  |  |  |  |  |  | 
ON=Cc1cc[n+](Cc2ccc(OC(F)(F)F)cc2)cc1 (as salt: bromide) [Py-BnOCF3, N-(p-trifluoromethoxy)benzyl-4-hydroxyiminomethylpyridinium bromide] | 175 to 176 |  |  |  |  |  |  |  |  |  |  |  |  |  | 
CCCCCCCCCCCC[N+](C)(C)Cc1ccccc1.[Br-] [BAB, benzalkonium bromide, reference compound] |  |  |  |  |  |  |  |  |  |  |  |  |  |  | Number of local lesions (LLN ± SD) [1]: 0.2 and 0.2±0.2; Percentage of inhibition of local lesions ([1]; vs control plants): 98.7%
CO/N=C(\C(=O)N[C@@H]1C(=O)N2C(C(=O)O)=C(COC(C)=O)CS[C@H]12)c1csc(N)n1 [Cefotaxime, reference compound] |  |  |  |  |  |  |  |  |  |  |  |  |  |  | MIC ([2]; standards): 0.1 µg/mL and 0.2 µM; MIC ([3]; S. aureus clinical/MRSA, read-out: MIC): > 119 µg/mL; MIC ([3]; S. aureus clinical/MRSA, standards, read-out: MIC): > 250 µM; MIC ([4]; L. monocytogenes ATCC7644, standards, read-out: MIC): 3.7 µg/mL and 10 µM; MIC ([5]; P. aeruginosa ATCC27853, standards, read-out: MIC): 59.7 µg/mL and 130 µM; MIC ([6]; S. aureus ATCC25923, standards, read-out: MIC): 3.7 µg/mL and 10 µM; MIC ([7]; B. cereus ATCC14579, standards, read-out: MIC): 3.7 µg/mL and 10 µM; MIC ([8]; ATCC25922, E. coli ATCC25922, standards, read-out: MIC): 0.2 µg/mL and 0.4 µM; MIC ([9]; E. faecalis ATCC29212, standards, read-out: MIC): 29.8 µg/mL and 60 µM
ON=Cc1cc[n+](Cc2ccc(Br)cc2)cc1 [Py-BnBr] |  | 630 µg/mL | 1250 | 2500 µg/mL and 6720 µM | 5000 µg/mL and 13400 µM | 1250 | 2500 | 160 µg/mL | 2500 µg/mL and 6720 µM |  |  |  |  |  | 
ON=Cc1cc[n+](Cc2ccc(C(F)(F)F)cc2)cc1 [Py-BnCF3, N-(p-(trifluoromethyl))benzyl-4-hydroxyiminomethylpyridinium bromide] |  | 1250 µg/mL and 3460 µM | 1250 | 2500 µg/mL and 6920 µM | 5000 µg/mL and 13800 µM | 630 | 1250 | 2500 µg/mL and 6920 µM | 2500 µg/mL and 6920 µM |  |  |  |  |  | 
Cc1ccc(C[n+]2ccc(C=NO)cc2)cc1 [Py-BnCH3] |  | 630 µg/mL | 5000 | 1250 µg/mL and 4070 µM | > 5000 µg/mL and > 16300 µM | 2500 | 5000 | 5000 µg/mL and 16300 µM | 2500 µg/mL and 8140 µM |  |  |  |  |  | 
ON=Cc1cc[n+](Cc2ccc(Cl)cc2)cc1 [Py-BnCl] |  | 2500 µg/mL and 7630 µM | 2500 | 2500 µg/mL and 7630 µM | 5000 µg/mL and 15300 µM | 1250 | 5000 | 310 µg/mL | 5000 µg/mL and 15300 µM |  |  |  |  |  | 
ON=Cc1cc[n+](Cc2ccc(F)cc2)cc1.[Br-] [Py-BnF, N-p-fluorobenzyl-4-hydroxyiminomethylpyridinium bromide] | 181 to 183 | > 5000 µg/mL and > 16100 µM | > 5000 |  |  |  |  |  |  | > 5000 µg/mL and > 16100 µM | > 5000 µg/mL and > 16100 µM | 5000 | > 5000 | > 5000 µg/mL and > 16100 µM | MIC [8, 16]: 630 µg/mL
O=[N+]([O-])c1ccc(C[n+]2ccc(C=NO)cc2)cc1 [Py-BnNO2] |  | 5000 µg/mL and 14800 µM | > 5000 |  |  |  |  |  |  | > 5000 µg/mL and > 14800 µM | > 5000 µg/mL and > 14800 µM | 5000 | > 5000 | > 5000 µg/mL and > 14800 µM | MIC ([8]; ATCC25922, 18 h): 2500 µg/mL and 7390 µM
ON=Cc1cc[n+](Cc2ccc(OC(F)(F)F)cc2)cc1 [Py-BnOCF3, N-(p-trifluoromethoxy)benzyl-4-hydroxyiminomethylpyridinium bromide] |  | 2500 µg/mL and 6630 µM | 1250 | 2500 µg/mL and 6630 µM | 2500 µg/mL and 6630 µM | 310 | 2500 | 310 µg/mL | 2500 µg/mL and 6630 µM |  |  |  |  |  | 
ON=Cc1cc[n+](Cc2ccccc2)cc1 [Py-Bn] |  | > 5000 µg/mL and > 17000 µM | > 5000 |  |  |  |  |  |  | > 5000 µg/mL and > 17000 µM | > 5000 µg/mL and > 17000 µM | > 5000 | > 5000 | > 5000 µg/mL and > 17000 µM | MIC ([8]; ATCC25922, 18 h): 1250 µg/mL and 4260 µM
ON=Cc1cc[n+](CCCCCCCCBr)cc1.[Br-] [Py-C8Br, N-(8-bromooctyl)-4-hydroxyiminomethylpyridinium bromide] | 100 to 101 | > 5000 µg/mL and > 12700 µM | 2500 |  |  |  |  |  |  | 1250 µg/mL and 3170 µM | > 5000 µg/mL and > 12700 µM | 5000 | 2500 | 2500 µg/mL and 6340 µM | MIC [8, 16]: 1250 µg/mL and 3170 µM
